Laboratory results taken from patent publication US11434242B2, “Dopamine-b-hydroxylase inhibitors” (BIAL-PORTELA & Cª, S.A., priority 2017, dated 2022).
Marks after values point to notes of the source that are not given here.

Target: T1, Dopamine beta hydroxylase (Homo sapiens, UniProt P09172)
T1 construct: 125 μl of plasma; tissue Instituto Português do Sangue Transplantação; host or cells: human plasma from healthy donors
T1 sequence (P09172 40-617 limits assumed): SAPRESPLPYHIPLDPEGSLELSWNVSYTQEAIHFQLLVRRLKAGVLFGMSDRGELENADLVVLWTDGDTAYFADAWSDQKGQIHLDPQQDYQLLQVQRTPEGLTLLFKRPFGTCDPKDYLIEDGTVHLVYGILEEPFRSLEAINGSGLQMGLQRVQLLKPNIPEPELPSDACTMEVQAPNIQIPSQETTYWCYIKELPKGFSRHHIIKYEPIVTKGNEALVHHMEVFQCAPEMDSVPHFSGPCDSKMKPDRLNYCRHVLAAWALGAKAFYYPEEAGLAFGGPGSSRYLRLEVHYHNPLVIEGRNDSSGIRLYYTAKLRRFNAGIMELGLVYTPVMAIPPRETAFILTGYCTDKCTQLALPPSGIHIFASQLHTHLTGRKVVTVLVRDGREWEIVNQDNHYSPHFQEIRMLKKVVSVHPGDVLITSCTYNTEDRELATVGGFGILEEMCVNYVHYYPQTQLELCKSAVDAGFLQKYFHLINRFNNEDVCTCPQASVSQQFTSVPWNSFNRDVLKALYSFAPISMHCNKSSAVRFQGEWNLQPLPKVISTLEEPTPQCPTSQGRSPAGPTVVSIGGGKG
Assay: Dopamine beta hydroxylase activity in human plasma
Format: biochemical
Procedure, shortened: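 Healthy-donor human plasma pre-incubated 10 min at 37° C with compound at final 10, 100 or 1000 nM in pH 5.0 acetate buffer with ascorbate, fumarate, pargyline, N-ethylmaleimide, catalase and copper sulfate. Tyramine substrate then added for 45 min; octopamine formed was isolated by SCX cartridge, periodate-converted and read at 330 nm; activity given as % control.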

Structure (SMILES) | Plasma (0.01 μM), activity in % of control (inhibitor 0.01 μM) | Plasma (0.1 μM), activity in % of control (inhibitor 0.1 μM) | Plasma (1 μM), activity in % of control (inhibitor 1 μM) | Plasma (0.01 μM), activity in % of control, re-test (asterisked) (inhibitor 0.01 μM, re-tested under the same experimental conditions, asterisked data believed to be correct) | Plasma (0.1 μM), activity in % of control, re-test (asterisked) (inhibitor 0.1 μM, re-tested under the same experimental conditions, asterisked data believed to be correct)
Cn1c(CC(=O)NC[C@H]2CCCO2)c2n(c1=S)C[C@H](c1c(F)ccc(Cl)c1F)C2 [Example 337, 2-((S)-6-(3-chloro-2,6-difluorophenyl)-2-methyl-3-thioxo-2,5,6,7-tetrahydro-3H-pyrrolo[1,2-c]imidazol-1-yl)-N—(((R)-tetrahydrofuran-2-yl)methyl)acetamide] | 48.2 % of control | 9.4 % of control |  |  | 
Cn1c(CC(=O)Nc2ncco2)c2n(c1=S)C[C@@H](c1c(F)ccc(F)c1F)C2 [Example 286, (R)-2-(2-methyl-3-thioxo-6-(2,3,6-trifluorophenyl)-2,5,6,7-tetrahydro-3H-pyrrolo[1,2-c]imidazol-1-yl)-N-(oxazol-2-yl)acetamide] | 73.8 % of control | 3.4 % of control |  |  | 
CS(=O)(=O)CCNC(=O)Cc1[nH]c(=S)n2c1C[C@H](c1c(F)ccc(Br)c1F)C2 [Example 118, (R)-2-(6-(3-bromo-2,6-difluorophenyl)-3-thioxo-2,5,6,7-tetrahydro-3H-pyrrolo[1,2-c]imidazol-1-yl)-N-(2-(methylsulfonyl)ethyl)acetamide] | 89.2 % of control | 49.0 % of control |  |  | 
Cn1c(CC(=O)NC2CCOCC2)c2n(c1=S)C[C@@H](c1c(F)ccc(F)c1F)C2 [Example 299, (R)-2-(2-methyl-6-(2,3,6-trifluorophenyl)-3-thioxo-2,5,6,7-tetrahydro-3H-pyrrolo[1,2-c]imidazol-1-yl)-N-(tetrahydro-2H-pyran-4-yl)acetamide] | 84.3 % of control | 48.4 % of control |  |  | 
Cl.Fc1ccc(Br)cc1[C@]12C[C@H]1c1c(CCN3CCCC3)[nH]c(=S)n1C2 [Example 185, (5aS,6aR)-5a-(5-bromo-2-fluorophenyl)-1-(2-(pyrrolidin-1-yl)ethyl)-5,5a,6,6a-tetrahydrocyclopropa[3,4]pyrrolo[1,2-c]imidazole-3(2H)-thione hydrochloride] | 72.9 % of control | 30.9 % of control |  |  | 
CN(C)CCCNC(=O)Cc1[nH]c(=S)n2c1[C@@H]1C[C@]1(c1cc(Br)ccc1F)C2.Cl [Example 146, 2-((5aS,6aR)-5a-(5-bromo-2-fluorophenyl)-3-thioxo-2,3,5,5a,6,6a-hexahydrocyclopropa[3,4]pyrrolo[1,2-c]imidazol-1-yl)-N-(3-(dimethylamino)propyl)acetamide hydrochloride] |  | 13.8 % of control | 0.9 % of control |  | 
Cn1c(CC(=O)NC2CCCCC2)c2n(c1=S)C[C@H](c1c(F)ccc(Cl)c1F)C2 [Example 356, (S)-2-(6-(3-chloro-2,6-difluorophenyl)-2-methyl-3-thioxo-2,5,6,7-tetrahydro-3H-pyrrolo[1,2-c]imidazol-1-yl)-N-cyclohexylacetamide] | 35.4 % of control | 6.6 % of control |  |  | 
Cn1c(CC(=O)N[C@H]2CCOC2)c2n(c1=S)C[C@@H](c1c(F)ccc(F)c1F)C2 [Example 289, 2-((R)-2-methyl-3-thioxo-6-(2,3,6-trifluorophenyl)-2,5,6,7-tetrahydro-3H-pyrrolo[1,2-c]imidazol-1-yl)-N—((S)-tetrahydrofuran-3-yl)acetamide] | 87.1 % of control | 58.3 % of control |  |  | 
Cn1c(CCC(=O)N2CCCC2)c2n(c1=S)C[C@@H](c1c(F)cccc1F)C2 [Example 264, (R)-3-(6-(2,6-difluorophenyl)-2-methyl-3-thioxo-2,5,6,7-tetrahydro-3H-pyrrolo[1,2-c]imidazol-1-yl)-1-(pyrrolidin-1-yl)propan-1-one] | 98.4 % of control | 54.2 % of control |  |  | 
CN(C(=O)Cc1c2n(c(=S)n1C)C[C@H](c1c(F)ccc(Br)c1F)C2)C1CCOC1 (stereo partly drawn) [Example 252, 2-((S)-6-(3-bromo-2,6-difluorophenyl)-2-methyl-3-thioxo-2,5,6,7-tetrahydro-3H-pyrrolo[1,2-c]imidazol-1-yl)-N-methyl-N-(tetrahydrofuran-3-yl)acetamide] | 82.2 % of control | 54.8 % of control |  | 46.0* % of control | 6.7* % of control
CCOC(=O)C(Cc1[nH]c(=S)n2c1C[C@H](c1c(F)c(F)cc(F)c1F)C2)C(=O)OCC [Example 200, (R)-diethyl 2-((6-(2,3,5,6-tetrafluorophenyl)-3-thioxo-3,5,6,7-tetrahydro-2H-pyrrolo[1,2-c]imidazol-1-yl)methyl)malonate] | 85.2 % of control | 66.4 % of control |  |  | 
Cn1cc(CNC(=O)Cc2c3n(c(=S)n2C)C[C@@]2(c4cc(Cl)ccc4F)C[C@@H]32)cn1 [Example 339, 2-((5aS,6aR)-5a-(5-chloro-2-fluorophenyl)-2-methyl-3-thioxo-2,3,5,5a,6,6a-hexahydrocyclopropa[3,4]pyrrolo[1,2-c]imidazol-1-yl)-N-((1-methyl-1H-pyrazol-4-yl)methyl)acetamide] | 42.3 % of control | 4.3 % of control |  |  | 
Cn1c(CC(=O)N[C@@H]2CCCOC2)c2n(c1=S)C[C@@]1(c3cc(Br)ccc3F)C[C@@H]21 [Example 277, 2-((5aS,6aR)-5a-(5-bromo-2-fluorophenyl)-2-methyl-3-thioxo-2,3,5,5a,6,6a-hexahydrocyclopropa[3,4]pyrrolo[1,2-c]imidazol-1-yl)-N—((R)-tetrahydro-2H-pyran-3-yl)acetamide] | 35.4 % of control | 3.4 % of control |  |  | 
CN(C(=O)Cc1c2n(c(=S)n1C)C[C@@H](c1c(F)cccc1F)C2)C1COC1 [Example 448, (R)-2-(6-(2,6-difluorophenyl)-2-methyl-3-thioxo-2,5,6,7-tetrahydro-3H-pyrrolo[1,2-c]imidazol-1-yl)-N-methyl-N-(oxetan-3-yl)acetamide] | 93.3 % of control | 65.3 % of control |  |  | 
Fc1ccc(Br)c(F)c1[C@H]1Cc2c(CCN3CCC(F)(F)CC3)[nH]c(=S)n2C1 [Example 177, (R)-6-(3-bromo-2,6-difluorophenyl)-1-(2-(4,4-difluoropiperidin-1-yl)ethyl)-2,5,6,7-tetrahydro-3H-pyrrolo[1,2-c]imidazole-3-thione] | 99.9 % of control | 77.1 % of control |  |  | 
Cl.Fc1ccc(F)c([C@H]2Cc3c(CCNC[C@@H]4CCCO4)[nH]c(=S)n3C2)c1F [Example 475, (R)-1-(2-((((S)-tetrahydrofuran-2-yl)methyl)amino)ethyl)-6-(2,3,6-trifluorophenyl)-2,5,6,7-tetrahydro-3H-pyrrolo[1,2-c]imidazole-3-thione hydrochloride] | 85.0 % of control | 67.0 % of control |  |  | 
F.Fc1ccc(Br)cc1[C@]12C[C@H]1c1c(CCNC3CCC3)[nH]c(=S)n1C2 [Example 188, (5aS,6aR)-5a-(5-bromo-2-fluorophenyl)-1-(2-(cyclobutylamino)ethyl)-5,5a,6,6a-tetrahydrocyclopropa[3,4]pyrrolo[1,2-c]imidazole-3(2H)-thione hydrofluoride] | 60.9 % of control | 15.4 % of control |  |  | 
Cn1c(CC(=O)N[C@H]2CC[C@H](O)CC2)c2n(c1=S)C[C@@]1(c3cc(Br)ccc3F)C[C@@H]21 [Example 325, 2-((5aS,6aR)-5a-(5-bromo-2-fluorophenyl)-2-methyl-3-thioxo-2,3,5,5a,6,6a-hexahydrocyclopropa[3,4]pyrrolo[1,2-c]imidazol-1-yl)-N-((1r,4R)-4-hydroxycyclohexyl)acetamide] | 34.2 % of control | 3.8 % of control |  |  | 
CN(C(=O)Cc1[nH]c(=S)n2c1C[C@H](c1c(F)c(F)cc(F)c1F)C2)C1CCOCC1 [Example 378, (R)—N-methyl-2-(6-(2,3,5,6-tetrafluorophenyl)-3-thioxo-2,5,6,7-tetrahydro-3H-pyrrolo[1,2-c]imidazol-1-yl)-N-(tetrahydro-2H-pyran-4-yl)acetamide] | 110.2 % of control | 52.6 % of control |  |  | 
Cn1c(CC(=O)Nc2ccccn2)c2n(c1=S)C[C@H](c1c(F)ccc(Cl)c1F)C2 [Example 258, (S)-2-(6-(3-chloro-2,6-difluorophenyl)-2-methyl-3-thioxo-3,5,6,7-tetrahydro-2H-pyrrolo[1,2-c]imidazol-1-yl)-N-(pyridin-2-yl)acetamide] | 84.2 % of control | 21.3 % of control |  |  | 
